Holding throughout (assay type): cell-based
In one experiment the target is T1, human TLR9 (Homo sapiens, UniProt Q9NR96).
T1 construct: host or cells: HEK-Blue cells
T1 sequence (Q9NR96 26-1032): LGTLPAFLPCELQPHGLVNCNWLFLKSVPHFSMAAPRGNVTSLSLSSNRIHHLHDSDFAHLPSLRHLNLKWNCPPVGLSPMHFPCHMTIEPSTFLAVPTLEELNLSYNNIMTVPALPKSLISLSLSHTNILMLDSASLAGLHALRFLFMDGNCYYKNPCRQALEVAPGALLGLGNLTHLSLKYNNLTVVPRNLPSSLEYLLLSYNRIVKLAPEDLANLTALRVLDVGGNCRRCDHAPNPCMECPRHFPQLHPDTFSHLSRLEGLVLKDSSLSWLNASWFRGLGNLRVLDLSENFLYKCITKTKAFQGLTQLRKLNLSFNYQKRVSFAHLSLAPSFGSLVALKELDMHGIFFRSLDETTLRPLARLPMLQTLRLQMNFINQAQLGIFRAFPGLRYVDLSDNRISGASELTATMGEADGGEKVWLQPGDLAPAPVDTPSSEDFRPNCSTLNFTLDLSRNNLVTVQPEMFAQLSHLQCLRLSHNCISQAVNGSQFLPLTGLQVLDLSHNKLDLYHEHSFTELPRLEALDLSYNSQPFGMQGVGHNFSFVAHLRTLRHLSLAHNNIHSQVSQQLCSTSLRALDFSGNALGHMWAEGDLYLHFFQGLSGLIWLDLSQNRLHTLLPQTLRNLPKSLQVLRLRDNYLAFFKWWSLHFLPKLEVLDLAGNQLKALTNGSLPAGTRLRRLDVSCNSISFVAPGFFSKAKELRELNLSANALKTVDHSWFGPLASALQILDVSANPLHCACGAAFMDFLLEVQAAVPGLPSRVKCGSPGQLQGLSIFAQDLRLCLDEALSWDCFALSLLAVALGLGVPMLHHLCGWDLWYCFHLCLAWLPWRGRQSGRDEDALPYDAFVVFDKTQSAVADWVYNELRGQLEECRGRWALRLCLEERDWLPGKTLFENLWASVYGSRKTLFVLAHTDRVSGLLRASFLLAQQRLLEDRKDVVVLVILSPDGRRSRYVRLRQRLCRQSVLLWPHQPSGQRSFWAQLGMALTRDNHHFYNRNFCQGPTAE
In words: TLR9 inhibition reporter assay (HEK-Blue, SEAP). The settings on record: HEK-Blue cells overexpressing human TLR9, ODN2006 5 nM, 22 hour incubation. The method in brief: (§1)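 Agonists used: gardiquimod 7.5 μM (TLR7), R848 15.9 μM (TLR8), ODN2006 5 nM (TLR9), added after 30 min room-temperature compound pre-treatment (0.05 nM–50 μM) of receptor-overexpressing HEK-Blue cells. SEAP reporter (NF-κB/AP-1 driven) read after 22 h at 37 °C; inhibition scaled between agonist+DMSO and reference-inhibitor wells.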

The target in the next experiment is T2, human TLR7 (Homo sapiens, UniProt Q9NYK1).
T2 construct: host or cells: HEK-Blue cells
T2 sequence (Q9NYK1 27-1049): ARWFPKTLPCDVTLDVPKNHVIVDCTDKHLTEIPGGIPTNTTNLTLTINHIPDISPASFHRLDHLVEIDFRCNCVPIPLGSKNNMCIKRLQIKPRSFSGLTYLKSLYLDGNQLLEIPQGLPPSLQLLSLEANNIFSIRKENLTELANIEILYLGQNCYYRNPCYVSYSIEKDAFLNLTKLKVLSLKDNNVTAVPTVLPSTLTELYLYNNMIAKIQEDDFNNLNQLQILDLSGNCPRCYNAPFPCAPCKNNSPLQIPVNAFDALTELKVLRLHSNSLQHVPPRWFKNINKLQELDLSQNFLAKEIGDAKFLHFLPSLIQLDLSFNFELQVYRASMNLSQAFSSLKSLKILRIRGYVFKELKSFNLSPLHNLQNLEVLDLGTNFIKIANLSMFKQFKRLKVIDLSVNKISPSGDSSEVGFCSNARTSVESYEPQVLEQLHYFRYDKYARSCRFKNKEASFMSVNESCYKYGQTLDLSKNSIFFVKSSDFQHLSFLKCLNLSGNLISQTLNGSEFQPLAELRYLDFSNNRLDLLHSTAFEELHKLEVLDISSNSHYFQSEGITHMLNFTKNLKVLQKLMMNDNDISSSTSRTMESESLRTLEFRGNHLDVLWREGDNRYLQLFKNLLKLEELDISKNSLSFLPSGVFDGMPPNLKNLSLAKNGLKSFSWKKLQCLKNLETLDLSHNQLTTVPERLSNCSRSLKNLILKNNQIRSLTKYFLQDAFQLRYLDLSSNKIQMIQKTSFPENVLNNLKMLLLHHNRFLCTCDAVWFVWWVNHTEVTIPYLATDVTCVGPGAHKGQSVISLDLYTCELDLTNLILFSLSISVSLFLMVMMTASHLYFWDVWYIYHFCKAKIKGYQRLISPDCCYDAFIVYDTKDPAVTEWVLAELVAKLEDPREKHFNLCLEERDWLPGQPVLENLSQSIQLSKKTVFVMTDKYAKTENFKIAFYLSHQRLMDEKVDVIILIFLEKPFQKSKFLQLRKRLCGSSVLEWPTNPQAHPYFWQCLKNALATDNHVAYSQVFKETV
In words: TLR7 inhibition reporter assay (HEK-Blue, SEAP). As to conditions: HEK-Blue cells overexpressing human TLR7, gardiquimod 7.5 μM, 22 hour incubation. The method in brief: as §1
Background: Reporter assays use an easily measured gene product as a stand-in for the process of interest.

Another experiment addresses T3, human TLR8 (Homo sapiens, UniProt Q9NR97).
T3 construct: host or cells: HEK-Blue cells
T3 sequence (Q9NR97 27-1041): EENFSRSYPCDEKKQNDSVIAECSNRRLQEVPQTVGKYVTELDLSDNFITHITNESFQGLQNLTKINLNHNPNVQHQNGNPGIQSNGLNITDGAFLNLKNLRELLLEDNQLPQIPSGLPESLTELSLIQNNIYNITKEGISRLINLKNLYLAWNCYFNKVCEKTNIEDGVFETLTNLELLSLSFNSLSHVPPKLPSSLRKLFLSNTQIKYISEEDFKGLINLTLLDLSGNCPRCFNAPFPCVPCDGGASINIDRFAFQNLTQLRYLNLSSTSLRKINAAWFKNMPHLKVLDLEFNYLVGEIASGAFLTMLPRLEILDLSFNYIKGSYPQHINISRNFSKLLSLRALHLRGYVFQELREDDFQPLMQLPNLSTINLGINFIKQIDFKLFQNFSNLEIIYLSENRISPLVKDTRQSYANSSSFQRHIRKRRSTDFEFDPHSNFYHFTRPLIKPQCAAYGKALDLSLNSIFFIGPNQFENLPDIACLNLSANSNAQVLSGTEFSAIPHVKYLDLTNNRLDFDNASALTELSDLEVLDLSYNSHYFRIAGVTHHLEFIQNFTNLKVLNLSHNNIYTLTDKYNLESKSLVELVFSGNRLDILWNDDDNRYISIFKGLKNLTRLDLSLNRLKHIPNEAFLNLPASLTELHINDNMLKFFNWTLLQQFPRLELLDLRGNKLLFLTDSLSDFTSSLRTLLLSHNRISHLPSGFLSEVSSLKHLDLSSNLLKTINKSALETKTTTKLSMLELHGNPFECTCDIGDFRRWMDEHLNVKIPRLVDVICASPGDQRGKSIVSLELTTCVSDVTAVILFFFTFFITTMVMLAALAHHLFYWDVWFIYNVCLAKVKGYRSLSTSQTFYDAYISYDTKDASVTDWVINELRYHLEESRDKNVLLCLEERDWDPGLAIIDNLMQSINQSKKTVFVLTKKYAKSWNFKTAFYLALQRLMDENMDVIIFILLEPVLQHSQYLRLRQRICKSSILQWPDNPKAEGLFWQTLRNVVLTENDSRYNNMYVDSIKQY
In words: TLR8 inhibition reporter assay (HEK-Blue, SEAP). As to conditions: HEK-Blue cells overexpressing human TLR8, R848 15.9 μM, 22 hour incubation. Summed up: as §1

Broadly, the IC50 is the point on the concentration scale where inhibition reaches its midpoint. Low values mean inhibition by little substance, high ones a need for much substance. On to `Cc1cc2nncn2cc1-c1[nH]c2ccc(C3CCN(Cc4ncn(C)n4)CC3)cc2c1C(C)C` [Example 20, 6-(3-isopropyl-5-(1-((1-methyl-1H-1,2,4-triazol-3-yl)methyl)piperidin-4-yl)-1H-indol-2-yl)-7-methyl-[1,2,4] triazolo[4,3-a]pyridine], for which the IC50 was 19600 nM against human TLR9, 69.6 nM against human TLR7 and 408 nM against human TLR8.

Consider `Cc1cc(-c2[nH]c3ccc(C4CCN(Cc5ncn(C)n5)CC4)cc3c2C(C)C)cn2cnnc12` [Example 21, 6-(3-isopropyl-5-(1-((1-methyl-1H-1,2,4-triazol-3-yl)methyl)piperidin-4-yl)-1H-indol-2-yl)-8-methyl-[1,2,4]triazolo[4,3-a]pyridine], for which the IC50 on human TLR9 came out at 4670 nM; against human TLR7 it was 3.9 nM; against human TLR8 it was 10.1 nM.

Regarding `Cc1nnc2ccc(-c3[nH]c4ccc(C5CCN(Cc6ncn(C)n6)CC5)cc4c3C(C)C)cn12` [Example 22, 6-(3-isopropyl-5-(1-((1-methyl-1H-1,2,4-triazol-3-yl)methyl)piperidin-4-yl)-1H-indol-2-yl)-3-methyl-[1,2,4]triazolo[4,3-a]pyridine], the IC50 was at least 50000 nM on human TLR9, 136 nM at human TLR7 and 17.6 nM on human TLR8.

Take `CC(C)c1c(-c2ccc3nncn3c2)[nH]c2ccc(C3CCN(Cc4ncn(C)n4)CC3)cc12` [Example 23, 6-(3-isopropyl-5-(1-((1-methyl-1H-1,2,4-triazol-3-yl)methyl)piperidin-4-yl)-1H-indol-2-yl)-[1,2,4]triazolo[4,3-a]pyridine]: the IC50 against human TLR9 is at least 50000 nM; against human TLR7 it was 54.9 nM; against human TLR8 it was 375 nM.

With `CNC(=O)CN1CCC(c2ccc3[nH]c(-c4ccc5nncn5c4C)c(C(C)C)c3c2)CC1` [Example 24, 2-(4-(3-isopropyl-2-(5-methyl-[1,2,4]triazolo[4,3-a]pyridin-6-yl)-1H-indol-5-yl)piperidin-1-yl)-N-methylacetamide], the IC50 is 8930 nM at human TLR9, 40.8 nM on human TLR7 and 31.9 nM against human TLR8.

On to `Cc1c(-c2[nH]c3ccc(C4CCN(CC(=O)N(C)C)CC4)cc3c2C(C)C)ccc2nncn12` [Example 25, 2-(4-(3-isopropyl-2-(5-methyl-[1,2,4]triazolo[4,3-a]pyridin-6-yl)-1H-indol-5-yl)piperidin-1-yl)-N,N-dimethylacetamide], for which the IC50 against human TLR9 stood at 3320 nM; on human TLR7 it was 49.5 nM; on human TLR8 it was 28.5 nM.

In the case of `Cc1c(-c2[nH]c3ccc(C4CCN(Cc5ncn(C)n5)CC4)cc3c2C(C)C)ccc2nncn12` [Example 26, 6-(3-isopropyl-5-(1-((1-methyl-1H-1,2,4-triazol-3-yl)methyl)piperidin-4-yl)-1H-indol-2-yl)-5-methyl-[1,2,4]triazolo[4,3-a]pyridine], the IC50 on human TLR9 amounted to 12400 nM; at human TLR7, 117 nM; against human TLR8, 27.9 nM.

Turning to `COCCN1CCC(c2ccc3[nH]c(-c4cc(C)c5nncn5c4)c(C(C)C)c3c2)CC1` [Example 27, 6-(3-isopropyl-5-(1-(2-methoxyethyl)piperidin-4-yl)-1H-indol-2-yl)-8-methyl-[1,2,4]triazolo[4,3-a]pyridine], the IC50 was found to be 3500 nM at human TLR9, 0.9 nM on human TLR7 and 3.4 nM against human TLR8.

As for `Cc1cc(-c2[nH]c3ccc(C4CCN(CCO)CC4)cc3c2C(C)C)cn2cnnc12` [Example 28, 2-(4-(3-isopropyl-2-(8-methyl-[1,2,4]triazolo[4,3-a]pyridin-6-yl)-1H-indol-5-yl)piperidin-1-yl) ethan-1-ol], the figures for the IC50 at human TLR9, on human TLR7 and against human TLR8 were 454 nM, 0.4 nM and 3.4 nM, respectively.

For `Cc1cc(-c2[nH]c3ccc(C4CCN(CC5(C)COC5)CC4)cc3c2C(C)C)cn2cnnc12` [Example 29, 6-(3-isopropyl-5-(1-((3-methyloxetan-3-yl)methyl)piperidin-4-yl)-1H-indol-2-yl)-8-methyl-[1,2,4]triazolo[4,3-a]pyridine], the values for the IC50 against human TLR9, at human TLR7 and against human TLR8 were 4330 nM, 0.7 nM and 1.1 nM, respectively.

For `Cc1cc(-c2[nH]c3ccc(C4CCN(CC5COC5)CC4)cc3c2C(C)C)cn2cnnc12` [Example 30, 6-(3-isopropyl-5-(1-(oxetan-3-ylmethyl)piperidin-4-yl)-1H-indol-2-yl)-8-methyl-[1,2,4]triazolo[4,3-a]pyridine], the IC50 against human TLR9 came out at 3110 nM; against human TLR7, 0.3 nM; against human TLR8, 1.3 nM.

Consider `Cc1cc(-c2[nH]c3ccc(C4CCN(CC#N)CC4)cc3c2C(C)C)cn2c(C)nnc12` [Example 31, 2-(4-(2-(3,8-dimethyl-[1,2,4]triazolo[4,3-a]pyridin-6-yl)-3-isopropyl-1H-indol-5-yl)piperidin-1-yl)acetonitrile], for which the IC50 was 727 nM against human TLR9, 3.8 nM against human TLR7 and 12.8 nM at human TLR8.
